Structures can show the parent of a compound that is named as a salt.
Tested on: clot lysis (fibrinolysis) in human citrated plasma, tPA-induced
Experiment: Plasma-based clot lysis assay (5%)
Assay type: biochemical
Settings: diluted human citrated plasma (platelet-poor, 5%), fibrinogen 3 μM, CaCl2 10 mM, tPA 0.2 nM, 37° C., OD 405 nm
Procedure: B-2. Plasma-based Clot Lysis Assay (5%)
The clot-lysis test system configures the kinetics of clot formation and degradation in vitro and allows quantifying modulation of the process by selected test compounds.
The test compounds were dissolved in 1% acetic acid and further complemented with an equal volume of DMSO. The resulting stock solutions were serially diluted in 0.5% acetic acid/50% DMSO. 1 μL aliquots of these solutions were placed into 384 well microplates (Greiner, black, transparent bottom), followed by 30 μL of diluted human citrated plasma (platelet-poor, final concentration: 5%; supplemented with fibrinogen, final concentration: 3 μM; dilution buffer: 20 mM HEPES, 150 mM NaCl, 0.01% Brij (pH 7)). The reactions were started by addition of […] of CaCl2 (final concentration: 10 mM), and tPA (tissue plasminogen activator, final concentration: 0.2 nM) in dilution buffer, followed by an additional volume of 20 μL dilution buffer for improved mixing. The reactions were incubated at 37° C. Clot formation and degradation was monitored spectrophotometrically by kinetic optical density measurements at 405 nm. IC50 values were determined by comparing the resulting time courses with the time course of a blank control reaction.

Structure (SMILES) | IC50 [nM] | also measured
CC1CC(c2cc(=O)[nH]c3c4c(Cl)cccc4nn23)CCN1 (single isomer, unassigned; (+)) [Example 101, (+)-Cis-10-Chloro-4-(2-methylpiperidin-4-yl)pyrimido[1,2-b]indazol-2(1H)-one hydrochloride [Enantiomerically Pure Cis-Isomer]] | 35 | –
O=c1cc(C2CCNCC2)n2nc3ccccc3c2[nH]1 [Example 1, 4-(Piperidin-4-yl)pyrimido[1,2-b]indazol-2(1H)-one hydrochloride] | 51 | –
O=c1cc(C2CCNCC2)n2nc3ccc(C(F)(F)F)cc3c2[nH]1 [Example 2, 4-(Piperidin-4-yl)-9-(trifluoromethyl)pyrimido[1,2-b]indazol-2(1H)-one hydrochloride] | 30 | –
O=c1cc(C2CCNCC2)n2nc3cccc(Cl)c3c2[nH]1 [Example 3, 10-Chloro-4-(piperidin-4-yl)pyrimido[1,2-b]indazol-2(1H)-one hydrochloride] | – | IC50 (hydrochloride): 28 nM
O=c1cc(C2CCNCC2)n2nc3cccc(F)c3c2[nH]1 [Example 4, 10-Fluoro-4-(piperidin-4-yl)pyrimido[1,2-b]indazol-2(1H)-one hydrochloride] | 28 | –
O=c1cc(C2CCNCC2)n2nc3ccc(Cl)cc3c2[nH]1 [Example 5, 9-Chloro-4-(piperidin-4-yl)pyrimido[1,2-b]indazol-2(1H)-one hydrochloride] | 37 | –
O=c1cc(C2CCNCC2)n2nc3c(Cl)cc(Cl)cc3c2[nH]1 [Example 6, 7,9-Dichloro-4-(piperidin-4-yl)pyrimido[1,2-b]indazol-2(1H)-one hydrochloride] | 94 | –
O=c1cc(C2CCNCC2)n2nc3ccc(F)cc3c2[nH]1 [Example 7, 9-Fluoro-4-(piperidin-4-yl)pyrimido[1,2-b]indazol-2(1H)-one hydrochloride] | 95 | –
COc1cccc2nn3c(C4CCNCC4)cc(=O)[nH]c3c12 [Example 8, 10-Methoxy-4-(piperidin-4-yl)pyrimido[1,2-b]indazol-2(1H)-one hydrochloride] | 46 | –
O=c1cc(C2CCNCC2)n2nc3cccnc3c2[nH]1 [Example 9, 7-(Piperidin-4-yl)pyrido[3′,2′:3,4]pyrazolo[1,5-a]pyrimidin-9(10H)-one hydrochloride] | 36 | –
O=c1cc(C2CCNCC2)n2nc3cccc(Br)c3c2[nH]1 [Example 10, 10-Bromo-4-(piperidin-4-yl)pyrimido[1,2-b]indazol-2(1H)-one hydrochloride] | – | IC50 (hydrochloride): 34 nM
O=c1cc(C2CCNCC2)n2nc3cc(C(F)(F)F)ccc3c2[nH]1 [Example 11, 4-(Piperidin-4-yl)-8-(trifluoromethyl)pyrimido[1,2-b]indazol-2(1H)-one hydrochloride] | 26 | –
O=c1cc(C2CCNCC2)n2nc3cccc(C(F)(F)F)c3c2[nH]1 [Example 12, 4-(Piperidin-4-yl)-10-(trifluoromethyl)pyrimido[1,2-b]indazol-2(1H)-one hydrochloride] | 32 | –
CC(C)(C)c1ccc2c(n1)nn1c(C3CCNCC3)cc(=O)[nH]c21 [Example 13, 8-tert-Butyl-4-(piperidin-4-yl)pyrido[2′,3′:3,4]pyrazolo[1,5-a]pyrimidin-2(1H)-one hydrochloride] | 31 | –
Cc1cc(C(F)(F)F)nc2nn3c(C4CCNCC4)cc(=O)[nH]c3c12 [Example 14, 10-Methyl-4-(piperidin-4-yl)-8-(trifluoromethyl)pyrido[2′,3′:3,4]pyrazolo[1,5-a]pyrimidin-2(1H)-one hydrochloride] | 50 | –
Cc1ccc2nn3c(C4CCNCC4)cc(=O)[nH]c3c2c1 [Example 15, 9-Methyl-4-(piperidin-4-yl)pyrimido[1,2-b]indazol-2(1H)-one hydrochloride] | 48 | –
Nc1ccc2c(c1)nn1c(C3CCNCC3)cc(=O)[nH]c21 [Example 16, 8-Amino-4-(piperidin-4-yl)pyrimido[1,2-b]indazol-2(1H)-one hydrochloride] | 34 | –
Cc1nnc2nn3c(C4CCNCC4)cc(=O)[nH]c3c2c1C [Example 17, 3,4-Dimethyl-8-(piperidin-4-yl)pyrimido[1′,2′:1,5]pyrazolo[3,4-c]pyridazin-6(5H)-one hydrochloride] | 22 | –
O=c1cc(C2CCNCC2)n2nc3cc(F)ccc3c2[nH]1 [Example 18, 8-Fluoro-4-(piperidin-4-yl)pyrimido[1,2-b]indazol-2(1H)-one hydrochloride] | 38 | –
O=c1cc(C2CCNCC2)n2nc3ccc(Br)cc3c2[nH]1 [Example 19, 9-Bromo-4-(piperidin-4-yl)pyrimido[1,2-b]indazol-2(1H)-one hydrochloride] | 26 | –

Structure (SMILES) | IC50 [nM] | also measured
O=c1cc(C2CCNCC2)n2nc3cccc(I)c3c2[nH]1 [Example 20, 10-Iodo-4-(piperidin-4-yl)pyrimido[1,2-b]indazol-2(1H)-one hydrochloride] | 22 | –
O=c1cc(C2CCNCC2)n2nc3cc(Br)ccc3c2[nH]1 [Example 21, 8-Bromo-4-(piperidin-4-yl)pyrimido[1,2-b]indazol-2(1H)-one hydrochloride] | 30 | –
O=c1cc(C2CCNCC2)n2nc3c(Cl)cccc3c2[nH]1 [Example 22, 7-Chloro-4-(piperidin-4-yl)pyrimido[1,2-b]indazol-2(1H)-one hydrochloride] | 26 | –
O=c1cc(C2CCNCC2)n2nc3cc(F)cc(F)c3c2[nH]1 [Example 23, 8,10-Difluoro-4-(piperidin-4-yl)pyrimido[1,2-b]indazol-2(1H)-one hydrochloride] | 28 | –
Cc1ccc2c(n1)nn1c(C3CCNCC3)cc(=O)[nH]c21 [Example 24, 8-Methyl-4-(piperidin-4-yl)pyrido[2′,3′:3,4]pyrazolo[1,5-a]pyrimidin-2(1H)-one hydrochloride] | 34 | –
CCOc1cccc2nn3c(C4CCNCC4)cc(=O)[nH]c3c12 [Example 26, 10-Ethoxy-4-(piperidin-4-yl)pyrimido[1,2-b]indazol-2(1H)-one hydrochloride] | 29 | –
O=c1cc(C2CCNCC2)n2nc3c(Br)cncc3c2[nH]1 [Example 27, 7-Bromo-4-(piperidin-4-yl)pyrido[4′,3′:3,4]pyrazolo[1,5-a]pyrimidin-2(1H)-one hydrochloride] | 13 | –
O=c1cc(C2CCNCC2)n2nc3c(F)cccc3c2[nH]1 [Example 28, 7-Fluoro-4-(piperidin-4-yl)pyrimido[1,2-b]indazol-2(1H)-one hydrochloride] | 33 | –
O=c1cc(C2CCNCC2)n2nc3cnccc3c2[nH]1 [Example 29, 4-(Piperidin-4-yl)pyrido[3′,4′:3,4]pyrazolo[1,5-a]pyrimidin-2(1H)-one hydrochloride] | 28 | –
O=c1cc(C2CCNCC2)n2nc3c(C(F)(F)F)cccc3c2[nH]1 [Example 30, 4-(Piperidin-4-yl)-7-(trifluoromethyl)pyrimido[1,2-b]indazol-2(1H)-one hydrochloride] | 46 | –
O=c1cc(C2CCNCC2)n2nc3cc(C(F)(F)F)cc([N+](=O)[O-])c3c2[nH]1 [Example 31, 10-Nitro-4-(piperidin-4-yl)-8-(trifluoromethyl)pyrimido[1,2-b]indazol-2(1H)-one hydrochloride] | 97 | –
Cc1cc(C)c2c(n1)nn1c(C3CCNCC3)cc(=O)[nH]c21 [Example 32, 8,10-Dimethyl-4-(piperidin-4-yl)pyrido[2′,3′:3,4]pyrazolo[1,5-a]pyrimidin-2(1H)-one hydrochloride] | 210 | –
N#Cc1cccc2nn3c(C4CCNCC4)cc(=O)[nH]c3c12 [Example 33, 2-Oxo-4-(piperidin-4-yl)-1,2-dihydropyrimido[1,2-b]indazole-10-carbonitrile trifluoroacetate] | – | IC50 (trifluoroacetate): 21 nM
Cc1cccc2nn3c(C4CCNCC4)cc(=O)[nH]c3c12 [Example 36, 10-Methyl-4-(piperidin-4-yl)pyrimido[1,2-b]indazol-2(1H)-one hydrochloride] | 18 | –
O=c1cc(C2CCNCC2)n2nc3cccc(OC(F)(F)F)c3c2[nH]1 [Example 37, 4-(Piperidin-4-yl)-10-(trifluoromethoxy)pyrimido[1,2-b]indazol-2(1H)-one hydrochloride] | 44 | –
O=c1cc(C2CCNCC2)n2nc3nccnc3c2[nH]1 [Example 38, 7-(Piperidin-4-yl)pyrazino[2′,3′:3,4]pyrazolo[1,5-a]pyrimidin-9(10H)-one hydrochloride] | 60 | –
O=c1cc(C2CCNCC2)n2nc3cc(Cl)ccc3c2[nH]1 [Example 39, 8-Chloro-4-(piperidin-4-yl)pyrimido[1,2-b]indazol-2(1H)-one hydrochloride] | 24 | –
CN(C)c1ccnc2nn3c(C4CCNCC4)cc(=O)[nH]c3c12 [Example 40, 10-(Dimethylamino)-4-(piperidin-4-yl)pyrido[2′,3′:3,4]pyrazolo[1,5-a]pyrimidin-2(1H)-one hydrochloride] | 38 | –
O=c1cc(C2CCNCC2)n2nc3cc(C(F)(F)F)cc(Cl)c3c2[nH]1 [Example 41, 10-Chloro-4-(piperidin-4-yl)-8-(trifluoromethyl)pyrimido[1,2-b]indazol-2(1H)-one hydrochloride] | 23 | –
